Experimental data as given in patent EP4461367A1, “NEW TERNATIN-TYPE CYCLOPEPTIDES FOR USE IN THERAPY” (Centre National de la Recherche Scientifique, priority 2023, dated 2024).
Starred links: 1 amine or outer side, 2 acyl side, 3 side chain; linkers in the order of their positions; H or OH if unused. Non-standard residues stand in square brackets, D forms with d. Residues, ends and D or L forms follow the SMILES beside them. ξ: configuration not given here. X5 = CC(CC(C(=O)[*:2])N(C)[*:1])C(C)OC=O; X2 = CC(COC=O)CC(C(=O)[*:2])N(C)[*:1]; X4 = CC(O)C(C)CC(C(=O)[*:2])N(C)[*:1]; ξNle(4-Me,5-ene) = C=CC(C)CC(N)C(=O)O; X1 = CCC(C)CC(C(=O)[*:2])N(C)[*:1]; X3 = CC(CO)CC(C(=O)[*:2])N(C)[*:1]; ξLeu(3ξ-OH) = CC(C)C(O)C(N)C(=O)O; NMeA = CN[CH](C)C(=O)O

Key:
[1] = Cellular cytotoxicity, MTT assay, Vero E6; assay type: cell-based; settings: african green monkey, Vero E6 cells, 48 h of treatment
Protocol: (§1) Cytotoxicity of the compounds of formula (I) was evaluated on A549, Vero E6 and Huh7 cells by measuring the mitochondrial activity after 48 h of treatment by an MTT assay.

HCoV-229E-Luc = experiment: microbe, parasite or virus in culture; assay type: cell-based, human alphacoronavirus HCoV-229-E; settings: Alphacoronavirus, Huh-7, 24 h, read-out: IC50 (nM) Huh7
[2] = Cellular cytotoxicity, MTT assay, Huh7; assay type: cell-based; settings: human, Huh7 cells, 48 h of treatment
Protocol: as §1

[3] = Cellular cytotoxicity, MTT assay, A549; assay type: cell-based; settings: human, A549 cells, 48 h of treatment
Protocol: as §1

ZIKV^GFP [4] = experiment: ZIKV^GFP antiviral assay, GFP by FACS at 24 h post-infection; assay type: cell-based; settings: Zika virus
Text: The antiviral activity of the compounds (C1 and C3 to C7) of formula (I) has been evaluated against Zika virus as representative of flaviviruses. Vero, A549 or Huh7.5 cells were infected with ZIKV^GFP (MOI=2) and simultaneously treated with increasing concentrations of the compounds of formula (I) (C1 and C3 to C7) or ternatin (ten-fold serial dilutions of considered compound).

DENV = DENV antiviral assay, infected cells by FACS at 72 h post-infection; assay type: cell-based; settings: Dengue virus; Vero cells, DENV MOI = 0.1, 72 h post-infection, Figure 9C; read-out: IC50 against DENV
Protocol: At 72 h post-infection, the percentage of DENV-infected cells was measured by FACS assay.

ZIKV^GFP [5] = experiment: Time of drug-addition assay, ZIKV^GFP in A549 cells; settings: 10 nM, Figure 11C
Protocol: Time of drug-addition assay aims at characterizing the antiviral action of the compounds of the invention on various stages of the dissecting virus infectious cycle.
Compound C1 (10 nM) or vehicle were used for treatment of A549 cells for viral inactivation assay, concurrently to virus input (Entry), after virus exposure (Replication) with specific washing steps and incubation periods (Figure 11A).
The data represent the means ± SD of four independent experiments performed in triplicate, and are expressed as relative values compared to vehicle-treated cells.

ZIKV^GFP [6] = experiment: ZIKV^GFP antiviral assay, GFP by FACS at 48 h post-infection; assay type: cell-based; settings: Zika virus, Vero, read-out: IC50 against ZIKV
Text: Vero cells were infected with ZIKV^GFP (MOI=2) and simultaneously treated with increasing concentrations of the compound C1 or ternatin (ten-fold serial dilutions of considered compound).

SARS-CoV-2 [7] = experiment: SARS-CoV-2 viral progeny, PFU assay (plaque-forming assay) of Huh7 supernatant; assay type: cell-based; settings: Huh7 cells, MOI=0.01, 24 h post-infection, at 0.6 nM, Figure 10B
Protocol: The compound C1 has been tested on the betacoronavirus SARS-CoV-2. Huh7 cells were infected with SARS-CoV-2 (MOI=0.01) and simultaneously treated with increasing concentrations of the compound of formula (I). At 24 h post-infection, cell supernatant was recovered for viral titration (Figure 10B). Viral progeny was measured by a PFU assay (plaque-forming assay) by quantifying infectious particles in the supernatant (PFU/mL).

RRV^GFP = experiment: microbe, parasite or virus in culture; settings: Ross River virus, Vero, 18 h, read-out: IC50 against RRV
Protocol: At 18 h post-infection, the percentage of GFP expressed by the cells is measured by FACS (Flow cytometric analysis of GFP fluorescence). Data represent the means ± SD of four independent experiments performed in triplicate and are expressed as relative values compared to mock-treated control.

SARS-CoV-2 [8] = experiment: Preclinical model in human primary bronchial epithelial cells (Mucilair), viral RNA by qRTPCR; assay type: cell-based; settings: Severe acute respiratory syndrome coronavirus 2, Primary bronchial epithelial cell, viral RNA at 72 h post-inoculation, Figure 12, read-out: inhibition of the infection by SARS-CoV-2
Protocol: The compound C1 was evaluated on a preclinical model in human primary bronchial epithelial cells (Mucilair) against SARS-CoV-2 (T. Meunier et al., Antimicrob Agents Chemother. 2022 Feb; 66(2): e01581-21). Mucilair cells were inoculated with SARS-CoV-2 in the presence of compound C1 at 0.75, 7.5 or 75 pM for 1 h at the apical side. Inoculum was removed 1 h post-infection. At 72 h post-inoculation, cells were lysed to extract RNA. Viral RNA was quantified by qRTPCR. For RNA quantification, data are expressed relative to the Mock-treated control.

[9] = A549, 24 h, read-out: IC50 (nM) A549
[10] = Huh7.5, 24 h, read-out: IC50 (nM) Huh7.5
[11] = Vero, 24 h, read-out: IC50 (nM) Vero

Protocol for adult zebrafish: (D) Total distance travelled at 1 day post injection. […] After injection, fish were observed during 5 days. Statistical analyses were conducted using unpaired t-test comparisons, n = 5 (n: number of fishes per group).

SMILES	CC50 at 48 h [1] [nM]	IC50 (HCoV-229E-Luc) [nM]	CC50 at 48 h [2] [nM]	CC50 at 48 h [3] [nM]	IC50 (ZIKV^GFP [4]; [9]) [nM]	IC50 (ZIKV^GFP [4]; [10]) [nM]	IC50 (ZIKV^GFP [4]; [11]) [nM]	IC50 (DENV) [nM]	stage of viral infection targeted (ZIKV^GFP [5])	toxicity in adult zebrafish (adult zebrafish; at the effective antiviral dose, injected 10 ng/µL, observed during 5 days)	fine-tune locomotor activity of zebrafish (adult zebrafish; injected with 10 ng/µL, 1 day post injection, Figure 13)	IC50 (ZIKV^GFP [6]) [nM]	reduces SARS-CoV-2 viral progeny production (SARS-CoV-2 [7]) [logs]	IC50 (RRV^GFP) [nM]	inhibition at 75 pM (SARS-CoV-2 [8]) [%]
C=CC(C)CC1NC(=O)C(CC(C)C(C)O)N(C)C(=O)C(C)N(C)C(=O)C(C(C)CC)NC(=O)C(C(O)C(C)C)NC(=O)C(C)N(C)C(=O)C(C)N(C)C1=O (stereo not shown) [Compound C5, comptonellin E] (cyclo([X4][ξNle(4-Me,5-ene)][NMeA][NMeA][ξLeu(3ξ-OH)]I[NMeA]); configuration not given here)	4810	98.5	31.9	99.8	40	11	244								
C=CC(C)CC1NC(=O)C(CC(C)C(C)OC=O)N(C)C(=O)C(C)N(C)C(=O)C(C(C)CC)NC(=O)C(C(O)C(C)C)NC(=O)C(C)N(C)C(=O)C(C)N(C)C1=O (stereo not shown) [Compound C7, comptonellin G] (cyclo([X5][ξNle(4-Me,5-ene)][NMeA][NMeA][ξLeu(3ξ-OH)]I[NMeA]); configuration not given here)	379	15	93.9	80.6	46	16	176								
C=CC(C)CC1NC(=O)C(CC(C)COC=O)N(C)C(=O)C(C)N(C)C(=O)C(C(C)CC)NC(=O)C(C(O)C(C)C)NC(=O)C(C)N(C)C(=O)C(C)N(C)C1=O (stereo not shown) [Compound C6, comptonellin F] (cyclo([X2][ξNle(4-Me,5-ene)][NMeA][NMeA][ξLeu(3ξ-OH)]I[NMeA]); configuration not given here)	3530	36.8	22.1	41	13	9	115								
C=CC(C)CC1NC(=O)C(CC(C)C)N(C)C(=O)C(C)N(C)C(=O)C(C(C)CC)NC(=O)C(C(O)C(C)C)NC(=O)C(C)N(C)C(=O)C(C)N(C)C1=O (stereo not shown) [Compound C1, comptonellin A]	200	5	4.9	11.2	4	2	9	42	targets late stages of viral infection	no toxicity	did not impair fine-tune locomotor activity	60	3	57	> 98
C=CC(C)CC1NC(=O)C(CC(C)CC)N(C)C(=O)C(C)N(C)C(=O)C(C(C)CC)NC(=O)C(C(O)C(C)C)NC(=O)C(C)N(C)C(=O)C(C)N(C)C1=O (stereo not shown) [Compound C3, comptonellin C] (cyclo([X1][ξNle(4-Me,5-ene)][NMeA][NMeA][ξLeu(3ξ-OH)]I[NMeA]); configuration not given here)	412	2.4			0.5	0.003	9								
C=CC(C)CC1NC(=O)C(CC(C)CO)N(C)C(=O)C(C)N(C)C(=O)C(C(C)CC)NC(=O)C(C(O)C(C)C)NC(=O)C(C)N(C)C(=O)C(C)N(C)C1=O (stereo not shown) [Compound C4, comptonellin D] (cyclo([X3][ξNle(4-Me,5-ene)][NMeA][NMeA][ξLeu(3ξ-OH)]I[NMeA]); configuration not given here)	3760	96.8	9.35	52.8	26	12	163								
COc1cc(-c2oc3c(OC)c(OC)cc(O)c3c(=O)c2OC)ccc1O [Ternatin, ternatin]		157			92	23	584	493				860		977	
